Series [1] deals with Balb/c mice. Put plainly: Neutralizing antibodies, double-antibody-sandwich and competitive inhibition test. The series is classed as in vivo. The method, then:
Balb/c mice of 2-3 Months old (both male and female) were divided into 8 groups […], and were immunized with εPA44 at both postpede palmas once a week for three times at different doses: 0.001 nmol, 0.01 nmol, 0.1 nmol, 0.5 nmol, 1 nmol, 10 nmol, 20 nmol respectively, 3 weeks after the immunization, the mice were bled by removing their eyeballs and serums were collected. Antibodies were tested by the double-antibody-sandwich method. The specificity was tested by antibody competitive inhibition test using of the 10 world wide available monoclonal antibodies.

Series [2] can be described thus: Isoelectric point, ampholyte pH gradient isoelectric focusing. The series is classed as physicochemical. The settings on record: 8N urea, TritonX-114. The procedure:
Supported ampholyte pH gradient isoelectric focusing was employed. Pretreatment: 8N urea and 2% TritonX-114. Urea at the corresponding concentration and 0.5% TritonX-114 were also added to polyacrylamide gel. Conventional Coomassie brilliant blue was used for dyeing.

Series [3] in a line: Solubility in different solution systems. Format: physicochemical. An excerpt:
εPA44 was soluble and stable in DMSO, but poorly soluble and stable in other solutions (see Table 5). Thus, DMSO was used as the mobile phase for SEC.

The test system of series [4] is peripheral blood mononuclear lymphocytes of HLA-A2+ healthy person. The series can be described thus: FIG. 2: induction of lymphocyte proliferation, 3H-TdR. The series is classed as cell-based, human. An excerpt:
FIG. 2 indicated the effect of inducing the proliferation of lymphocytes.

Series [5] deals with enzyme-labeled antibody. The series can be described thus: Potency/specific activity of stock solution or semifinished product, enzyme-linked plate. The series is classed as binding. An excerpt:
Chromatography column AP5 20/275 POROS 50 R1 was used in the batch production. After peptide-resin was cleaved and preliminarily purified, the collected εPA44 sample was divided into 7 parts for high purification, and the effects and reproducibility for batch purification of εPA44 stock solution were furthered studied. […] The collected elution peak fractions of εPA44 were pooled and mixed homogenously, aliquots were removed for analysis. If the sample met the set standards, it was used as the stock solution and was stored at −20° C. until use. The output, yield and specific activity of the product were calculated based on the measured data.
The semifinished product to be tested was diluted to a concentration within the measurable range of the potency determination. An enzyme-linked plate( ? ) was coated, blocked, bound by enzyme-labeled antibody, and developed. The absorbance at 450 nm (A450 nm) was detected by an enzyme-labeling device, and compared to the reference of the product. The potency of εPA44 in the extract of the sample was determined, and the specific activity of the semifinished product ( ? ) was calculated.
The reference of the product was 10-fold diluted with 50% ethanol, and then was two-fold serially diluted. 100 μl dilutions were separately added to the wells on the 96-well enzyme-linket immunosorbent assay plate, each well was repeated in triplicate. Coating was carried out in refrigerator at 4° C. for 20-24 hours. The stock solution of εPA44 was diluted and coated similarly to the reference. 100 μl of 50% ethanol was added to negative control wells. After the coating was completed, 200 μl 1% calf serum was added to each well, and blocked in refrigerator at 4° C. for 2 hours. The enzyme-linket immunosorbent assay plate was dried in air, 80 μl enzyme-labeled antibody was added to each well and incubated at 37° C. for 40 minutes. The plate was washed with wash solution for 4 times and dried in air, then 50 μl of substrate solution A and 50 μl of substrate solution B were added to each well and developed at 37° C. for 15 minutes under protection from light. Then 50 μl of stop solution was added to each well. A450 nm values were detected on 550 type enzyme-linket immunosorbent assay detector. The median dilution times of the reference and the samples were calculated by program or linear regression method based on the median effect value of the reference of εPA44 (median maximum absorbance), and the potency of the test sample and the specific activity of the product were calculated according to the following formulas.

Series [6] concerns HBV-DNA transgenic mice. The series can be described thus: HBV transgenic mice: IFN-γ secreting cells, ELI-SPOT. The series is classed as in vivo. The settings on record: 30th day after end of immunization. The procedure:
The levels of cytokines such as IFN-γ, IL-4, etc. in supernatant were measured by the ELISA method, and the activity of the test drug (CH3(CH2)14COKSSQYIKANSKFIGITEAAASIVSPFIPLLGGGDPRVRGLYFPA) (SEQ ID NO:5) for inducing the differentiation of T cells into Th1/Th2 type was analyzed. […] The expression frequency of IFN-γ secreting cells in peripheral blood lymphocytes was measured by the ELI-SPOT method in said supernatant. […] On the 10th, 20th and 30th day after the end of the three immunizations, bloods were removed, serum isolated, and the contents of HBsAg and HBV-DNA in the serum were separately measured by the ELISA method and quantitative PCR method.
The expression frequency of IFN-γ secreting cells in peripheral blood lymphocytes was measured by the ELI-SPOT method.

Values joined by “and” are separate entries in the source; they are usually repeats but may differ in a detail not shown here. Identical values can stand only once. Ends that are not written are not given here. * marks the point of attachment. Palmitoyl = CCCCCCCCCCCCCCCC(=O)*

One may read the solubility as the concentration that dissolves in the medium under given conditions. Low values mean a poorly soluble substance, high ones a readily soluble substance. With “K(Palmitoyl)SSQYIKANSKFIGITEAAAFLPSDFFPSVGGGDPRVRGLYFPA-OH [SEQ ID NO:1, CH3(CH2)14COKSSQYIKANSKFIGITEAAAFLPSDFFPSVGGGDPRVRGLYFPA]”, the “specificity of induced antibodies” value in series [1] (antibody competitive inhibition test with monoclonal antibodies) was “HBV neutralizing antibodies”. In addition, the “dose inducing the generation of antibody” value in series [1] (serum 3 weeks after immunization) was found to be 0.01 nmol. In series [2], the isoelectric point is 7.2 pH. The solubility in series [3] (0.1 mol/L PB (pH 6.8)) worked out at 10 µg/mL; in series [3] (2% Tween80-0.1 mol/L PB(pH 6.8)), 80 µg/mL; in series [3] (50% Acetonitrile-0.1% TFA), 1670 µg/mL; in series [3] (50% DMSO) it was 2530 µg/mL; in series [3] (50% Ethanol-10 mmol/L HCl) it was 2480 µg/mL; in series [3] (50% Ethanol-10 mmol/L phosphoric acid), 2430 µg/mL. Further, the solubility in series [3] (50% Methanol-0.1% TFA) was found to be 1540 µg/mL; in series [3] (DMSO) it was 11700 µg/mL. In series [4] (lymphocyte proliferation), this substance gave a minimal effective dose of 0.1 ng. Moreover, the “range with dose-effect dependence” value in series [4] (lymphocyte proliferation) lay in the range of 0.1 to 10 ng. Also, in series [4] (with IL-2, γ-count after 3H-TdR), the “induction of the proliferation of lymphocytes” value was “significantly induce the proliferation of lymphocytes”. In addition, the Specific activity in series [5] (semifinished product) was 13985.31 U/mg; in series [5] (stock solution after reversed phase chromatography, batches 1-3 and x ± Sx, listed as εPA44), 10265.08 U/mg and 11689.76 ± 1503.57 U/mg and 13261.42 U/mg and 11542.77 U/mg. Moreover, the “potency of each vial” value in series [5] (semifinished product) is 4085.53 U. Further, in series [6] (10-1000 U/mouse), the “expression frequency of IFN-γ secreting cells in peripheral blood lymphocytes” value was “increased with the increase of the immunization dose”. Further, the “highest expression frequency of IFN-γ secreting cells” value in series [6] (IFN-α2b at 15000 U/mouse) is listed as 3660 IFN-γ secreting cells/10^6 PBMC.

For the origin of these results see patent US8591908B2, “Immunogen for preparation of therapeutic vaccines or drugs for treatment of hepatitis B and the producing method and use thereof” (Institute of Immunology, PLA, priority 2002, dated 2013).
